Laboratory results from patent publication US6610710B2, “Phenylalanine derivatives” (Ajinomoto Co., Inc., priority 1999, dated 2003).

Each compound was assayed against T1, integrin α4β1 (Jurkat cells) binding with recombinant human VCAM-1 (Homo sapiens, UniProt P05556+P13612) (assay: VCAM antagonistic activity (VCAM-1/α4β1 binding assay), Jurkat cell adhesion). Conditions: read-out: VCAM/α 4 β 1 antagonistic activity to integrin (IC50).
T1 construct: cell strain Jurkat (ATCC TIB-152) of human T cells, known to express integrin α4β1; endogenous in cells; host or cells: Jurkat (ATCC TIB-152), human T cells
T1 sequence (P13612 34-1032): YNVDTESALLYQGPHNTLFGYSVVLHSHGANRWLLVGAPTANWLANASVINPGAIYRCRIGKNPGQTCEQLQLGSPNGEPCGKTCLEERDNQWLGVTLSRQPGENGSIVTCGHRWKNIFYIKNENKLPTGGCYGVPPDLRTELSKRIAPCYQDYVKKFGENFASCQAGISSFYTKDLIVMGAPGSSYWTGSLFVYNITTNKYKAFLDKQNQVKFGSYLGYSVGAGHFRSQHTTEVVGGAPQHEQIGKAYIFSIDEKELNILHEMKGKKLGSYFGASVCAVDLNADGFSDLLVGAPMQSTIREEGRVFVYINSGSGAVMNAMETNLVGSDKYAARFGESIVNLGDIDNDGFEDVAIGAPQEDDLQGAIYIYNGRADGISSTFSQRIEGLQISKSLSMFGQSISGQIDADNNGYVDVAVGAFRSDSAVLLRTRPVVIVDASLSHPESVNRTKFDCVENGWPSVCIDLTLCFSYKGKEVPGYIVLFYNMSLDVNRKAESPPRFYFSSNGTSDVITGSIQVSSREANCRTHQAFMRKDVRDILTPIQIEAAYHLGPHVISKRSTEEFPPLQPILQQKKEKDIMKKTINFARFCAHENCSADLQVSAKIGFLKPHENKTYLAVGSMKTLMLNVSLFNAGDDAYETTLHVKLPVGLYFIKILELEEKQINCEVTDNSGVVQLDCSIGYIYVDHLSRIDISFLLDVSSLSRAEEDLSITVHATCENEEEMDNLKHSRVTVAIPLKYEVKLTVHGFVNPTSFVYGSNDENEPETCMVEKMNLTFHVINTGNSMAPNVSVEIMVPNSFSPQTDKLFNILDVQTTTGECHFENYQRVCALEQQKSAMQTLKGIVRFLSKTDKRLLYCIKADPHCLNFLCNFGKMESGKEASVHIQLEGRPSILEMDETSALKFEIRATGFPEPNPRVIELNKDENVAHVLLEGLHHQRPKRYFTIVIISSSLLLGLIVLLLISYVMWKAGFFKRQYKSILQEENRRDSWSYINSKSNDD
T1 sequence (P05556 21-798): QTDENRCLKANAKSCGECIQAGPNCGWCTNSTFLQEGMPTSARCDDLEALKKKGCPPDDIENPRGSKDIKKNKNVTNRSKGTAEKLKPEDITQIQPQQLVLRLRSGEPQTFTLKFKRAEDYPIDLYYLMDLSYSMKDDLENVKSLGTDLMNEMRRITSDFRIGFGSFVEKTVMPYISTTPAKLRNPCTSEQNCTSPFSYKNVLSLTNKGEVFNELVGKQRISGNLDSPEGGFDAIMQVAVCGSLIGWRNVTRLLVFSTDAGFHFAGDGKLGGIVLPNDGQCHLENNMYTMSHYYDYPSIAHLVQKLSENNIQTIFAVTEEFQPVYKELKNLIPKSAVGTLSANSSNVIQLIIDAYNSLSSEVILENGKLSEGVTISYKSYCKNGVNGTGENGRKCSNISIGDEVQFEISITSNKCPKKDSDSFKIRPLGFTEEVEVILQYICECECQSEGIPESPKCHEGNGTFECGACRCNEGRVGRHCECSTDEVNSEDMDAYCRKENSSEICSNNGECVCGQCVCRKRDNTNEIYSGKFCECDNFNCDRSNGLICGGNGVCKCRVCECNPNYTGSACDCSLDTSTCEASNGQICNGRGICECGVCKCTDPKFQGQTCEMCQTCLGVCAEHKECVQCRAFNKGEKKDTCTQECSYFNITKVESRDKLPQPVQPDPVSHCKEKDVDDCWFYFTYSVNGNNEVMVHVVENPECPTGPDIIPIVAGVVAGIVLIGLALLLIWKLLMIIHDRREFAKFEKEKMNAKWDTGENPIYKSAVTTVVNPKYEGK
Assay type: cell-based
Method: (Test Example) VCAM Antagonistic Activity (VCAM-1/α4β1 Binding Assay):
The capacity of a test substance antagonistic to the binding of cell strain Jurkat (ATCC TIB-152) of human T cells, known to express integrin α4β1, with VCAM-1 was determined. 100 μl/well of a solution (500 ng/ml ) of recombinant human VCAM-1 (R & D systems) diluted with buffer A (0.1 M NaHCO3, pH 9.6) was added to a micro titer plate having 96 wells (Nunc Maxisorp). After the incubation at 4° C. overnight, unbound VCAM-1 was removed by once washing with PBS. After completion of the washing, a buffer (buffer B) obtained by diluting Block Ace® (Dainippon Pharmaceutical Co., Ltd.) with PBS to 1/4 concentration was added in an amount of 150 μl /well. After the incubation at room temperature for 1 hour, buffer B was removed and the plate was washed with PBS once.
Jurkat cells were washed with Dulbecco modified Eagle medium (SIGMA, hereinafter referred to as “DMEM”) twice and then incubated in DMEM containing 10 μg/ml of Calcein-AM (Wako Pure Chemical Industries, Ltd.) at 37° C. in dark place for 30 minutes to label them with fluorescence. The cells were again suspended in a binding buffer (DMEM containing 20 mM HEPES, 0.1% BSA).
50 μl of a test substance of various concentrations obtained by the dilution with the binding buffer was added to the plate. Immediately thereafter, 50 μl (final volume: 100 μl/well) of the fluorescent Jurkat cells (4×10^6 cells/ml ) were added thereto, and they were incubated at room temperature for 30 minutes. After the shaking on a plate shaker (IKA MTS-4) at 800 rpm for 30 seconds, the solution was immediately removed to remove the unbound cells. The fluorescence quantity of the bound cells remaining in the wells was determined with a fluorescent plate reader (Wallac 1420 ARVO multi-label counter) (filter excitation wave length: 485 nm, emission wave length: 535 nm). The fluorescent strength thus obtained is proportional to the number of Jurkat cells bound to VCAM-1 and remaining on the plate. The binding rate of each test material in various concentrations was determined while the fluorescent strength of the test material-free well was determined to be 100%. The concentration IC50 for the 50% binding inhibition was calculated.

| SMILES | IC50 |
| --- | --- |
| O=C(O)[C@H](Cc1ccc(OCc2c(Cl)cccc2Cl)cc1)NC(=O)[C@H]1CC[C@H](C(=O)O)CC1 [Example 2, N-(Trans-4-carboxycyclohexane-1-carbonyl)-O-(2,6-dichlorobenzyl)-L-tyrosine] | 5 to 25 µM |
| O=C(O)[C@H](Cc1ccc(OCc2c(Cl)cccc2Cl)cc1)NC(=O)[C@H]1CC[C@H](C(=O)NNc2ccccc2)CC1 [Example 3, N-(Trans-4-phenylhydrazinocarbonylcyclohexane-1-carbonyl)-O-(2,6-dichlorobenzyl)-L-tyrosine] | 25 to 50 µM |
| O=C(O)[C@H](Cc1ccc(OCc2c(Cl)cccc2Cl)cc1)NC(=O)[C@H]1CC[C@H](C(=O)NNc2ccc(Br)cc2)CC1 [Example 4, N-[Trans-4-(4-bromophenylhydrazinocarbonyl)cyclohexane-1-carbonyl]-O-(2,6-dichlorobenzyl)-L-tyrosine] | 25 to 50 µM |
| O=C(O)[C@H](Cc1ccc(OCc2c(Cl)cccc2Cl)cc1)NC(=O)[C@H]1CC[C@H](C(=O)NCc2ccccc2)CC1 [Example 6] | 25 to 50 µM |
| COc1ccc(NNC(=O)[C@H]2CC[C@H](C(=O)N[C@@H](Cc3ccc(OCc4c(Cl)cccc4Cl)cc3)C(=O)O)CC2)cc1 [Example 14] | 1 to 5 µM |
| Cc1ccc(NNC(=O)[C@H]2CC[C@H](C(=O)N[C@@H](Cc3ccc(OCc4c(Cl)cccc4Cl)cc3)C(=O)O)CC2)cc1 [Example 34] | 1 to 5 µM |
| O=C(O)[C@H](Cc1ccc(OCc2c(Cl)cccc2Cl)cc1)NC(=O)[C@H]1CC[C@H](C(=O)NNc2ccc(OC(F)(F)F)cc2)CC1 [Example 35] | 25 to 50 µM |
| COc1cccc(NNC(=O)[C@H]2CC[C@H](C(=O)N[C@@H](Cc3ccc(OCc4c(Cl)cccc4Cl)cc3)C(=O)O)CC2)c1 [Example 44] | 5 to 25 µM |
| O=C(Nc1ccc(C[C@H](NC(=O)[C@H]2CC[C@H](C(=O)O)CC2)C(=O)O)cc1)c1snnc1-c1ccccc1 [Example 45, N-(Trans-4-carboxycyclohexane-1-carbonyl)-4-{[(4-phenyl-1,2,3-thiadiazole-5-yl)carbonyl]amino}-L-phenylalanine] | 1 to 5 µM |
| COc1ccc(NNC(=O)[C@H]2CC[C@H](C(=O)N[C@@H](Cc3ccc(NC(=O)c4snnc4-c4ccccc4)cc3)C(=O)O)CC2)cc1 [Example 46, N-[Trans-4-(4-methoxyphenylhydrazinocarbonyl)cyclohexane-1-carbonyl]-4-{[(4-phenyl-1,2,3-thiadiazole-5-yl)carbonyl]amino}-L-phenyl-alanine] | 5 to 25 µM |
| COc1cccc(OC)c1-c1ccc(C[C@H](NC(=O)[C@H]2CC[C@H](C(=O)O)CC2)C(=O)O)cc1 [Example 50, N-(Trans-4-carboxycyclohexane-1-carbonyl)-4-(2,6-dimethoxyphenyl)-L-phenylalanine] | 1 to 5 µM |
| COc1ccc(NNC(=O)[C@H]2CC[C@H](C(=O)N[C@@H](Cc3ccc(-c4c(OC)cccc4OC)cc3)C(=O)O)CC2)cc1 [Example 51, N-[Trans-4-(4-methoxyphenylhydrazinocarbonyl)cyclohexane-1-carbonyl]-4-(2,6-dimethoxyphenyl)-L-phenylalanine] | 1 to 5 µM |
